SMILES strings stand for the structures.

The target of this assay is NACHT, LRR and PYD domains-containing protein 3 (Homo sapiens, UniProt Q96P20). Description: Evaluation of NLRP3 Inflammasome Inhibitory Activity Assay. As to the method: The NLRP3 inflammasome inhibitory activity of test compounds were evaluated CM the basis of the inhibitory activity of the IL-1β, production in THP1-Null cells (Product Number: thp-null, InvivoGen). […] A solution containing a test compound (20 μL/well) was added to test compound-setting wells. […] The supernatant of the culture was cryonically stored (set at −20° C.) until measurement of IL-1β.
Sequence of NACHT, LRR and PYD domains-containing protein 3 (Q96P20 whole entry, the tested form may be a part): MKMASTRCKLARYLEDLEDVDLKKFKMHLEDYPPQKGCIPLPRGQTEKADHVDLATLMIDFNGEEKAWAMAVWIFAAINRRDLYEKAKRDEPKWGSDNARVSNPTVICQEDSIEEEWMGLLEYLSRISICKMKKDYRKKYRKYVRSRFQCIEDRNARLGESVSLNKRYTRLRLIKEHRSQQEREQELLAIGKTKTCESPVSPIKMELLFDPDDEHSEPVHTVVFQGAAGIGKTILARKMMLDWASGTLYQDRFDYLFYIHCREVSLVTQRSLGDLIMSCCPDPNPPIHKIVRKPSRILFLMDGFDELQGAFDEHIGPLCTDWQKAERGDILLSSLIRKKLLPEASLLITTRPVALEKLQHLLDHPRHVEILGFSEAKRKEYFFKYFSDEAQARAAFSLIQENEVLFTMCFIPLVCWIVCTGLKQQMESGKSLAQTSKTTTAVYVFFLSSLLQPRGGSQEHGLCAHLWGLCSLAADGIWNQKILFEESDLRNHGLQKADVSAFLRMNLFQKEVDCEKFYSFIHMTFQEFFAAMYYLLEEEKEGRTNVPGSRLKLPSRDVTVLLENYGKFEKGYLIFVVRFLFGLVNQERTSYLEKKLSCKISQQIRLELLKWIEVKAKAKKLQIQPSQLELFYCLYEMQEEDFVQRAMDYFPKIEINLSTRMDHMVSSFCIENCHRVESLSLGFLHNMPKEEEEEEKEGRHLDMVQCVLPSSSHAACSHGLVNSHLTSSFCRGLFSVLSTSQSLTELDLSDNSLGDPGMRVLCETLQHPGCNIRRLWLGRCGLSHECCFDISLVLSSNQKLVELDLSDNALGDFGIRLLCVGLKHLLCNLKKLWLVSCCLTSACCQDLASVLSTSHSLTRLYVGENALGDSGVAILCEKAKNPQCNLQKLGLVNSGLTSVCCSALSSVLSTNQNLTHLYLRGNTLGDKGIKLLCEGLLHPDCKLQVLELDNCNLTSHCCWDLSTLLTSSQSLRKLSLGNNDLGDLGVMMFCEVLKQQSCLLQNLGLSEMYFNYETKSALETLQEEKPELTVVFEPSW
In the case of `CCCS(=O)(=O)C1CCCN(S(=O)(=O)NC(=O)c2coc(Nc3nn(C(C)C)cc3C)n2)CC1` (stereo not drawn) [US20230399319, Example 2-302], the IC50 stood at 36 nM.

For the compound `Cc1ccc(C(F)(F)F)cc1Nc1nc(C(=O)NS(=O)(=O)N2CCN(S(=O)(=O)N(C)C)CC2)co1` [US20230399319, Example 2-266], the IC50 was 50 nM.

`COCCN(CCOC)S(=O)(=O)NC(=O)c1coc(Nc2cc(C(F)(F)F)ccc2C)n1` [US20230399319, Example 2-164] displayed an IC50 of 140 nM.

`CCC1(C#N)CCCN(S(=O)(=O)NC(=O)c2coc(Nc3cc(C(F)(F)F)ccc3C)n2)CC1` (stereo not drawn) [US20230399319, Example 2-240] returned an IC50 of 31 nM.

As to `Cc1ccc(C(F)(F)F)cc1Nc1nc(C(=O)NS(=O)(=O)N(C)Cc2cnccn2)co1` [US20230399319, Example 2-236], the IC50 amounted to 100 nM.

`COCCN(Cc1ccccc1)S(=O)(=O)NC(=O)c1coc(Nc2cc(C(F)(F)F)ccc2C)n1` [US20230399319, Example 2-268]: the half-inhibitory concentration (IC50) is 55 nM.

Consider `COC1COCCN(S(=O)(=O)NC(=O)c2coc(Nc3cc(C(C)C)c(F)cc3C)n2)C1` (stereo not drawn) [US20230399319, Example 2-343], for which inhibition was half-maximal at 16 nM (IC50).

`COCCCN(C)S(=O)(=O)NC(=O)c1coc(Nc2cc(C(F)(F)F)ccc2C)n1` [US20230399319, Example 2-235]: the midpoint of inhibition, the IC50, lay at 94 nM.

For `Cc1ccc(C(F)(F)F)cc1Nc1nc(C(=O)NS(=O)(=O)N(C)CCn2cccn2)co1` [US20230399319, Example 2-279], the IC50 came to 74 nM.

With `Cc1ccc(C(F)(F)F)cc1Nc1nc(C(=O)NS(=O)(=O)N2CCCC(CC#N)CC2)co1` (stereo not drawn) [US20230399319, Example 2-150], the IC50 was 25 nM.

`CC(C)c1cc(Nc2nc(C(=O)NS(=O)(=O)N3CCCOCC3)co2)n(C(C)C)n1` [US20230399319, Example 2-202] registered an IC50 of 2200 nM.

In turn, `Cc1ccc(C(C)(C)C)cc1Nc1nc(C(=O)NS(=O)(=O)N2CCCOCC2)co1` [US20230399319, Example 2-112] showed an IC50 of 65 nM.

`Cc1ccc(C(F)(F)F)cc1Nc1nc(C(=O)NS(=O)(=O)N2CCCC(C#N)(C(=O)N3CCCC3)CC2)co1` (stereo not drawn) [US20230399319, Example 2-261] gave an IC50 of 28 nM.

Regarding `Cc1ccc(C(F)(F)F)cc1Nc1nc(C(=O)NS(=O)(=O)N2CCC(F)(F)CC2)co1` [US20230399319, Example 2-023], the IC50 is 130 nM.

As for `Cc1ccc(C(F)(F)F)cc1Nc1nc(C(=O)NS(=O)(=O)N2CC(F)(F)C2)co1` [US20230399319, Example 2-077], the IC50 came out at 530 nM.

On to `CCOCC1CCN(S(=O)(=O)NC(=O)c2coc(Nc3cc(C)c(F)cc3C)n2)CCO1` (stereo not drawn) [US20230399319, Example 2-340], for which the midpoint of inhibition, the IC50, lay at 12 nM.

The compound `Cc1ccc(C(F)(F)F)cc1Nc1nc(C(=O)NS(=O)(=O)N(C)CC#N)co1` [US20230399319, Example 2-108] had an IC50 of 130 nM.

For the compound `COC[C@@H]1CCCN1S(=O)(=O)NC(=O)c1coc(Nc2cc(C)ccc2C(C)C)n1` [US20230399319, Example 2-322], the IC50 amounted to 270 nM.

Regarding `CCOC[C@@H]1CCCN1S(=O)(=O)NC(=O)c1coc(Nc2cc(C)ccc2C)n1` [US20230399319, Example 2-314], the IC50 was 210 nM.

The compound `Cc1cc(F)c(C(C)C)cc1Nc1nc(C(=O)NS(=O)(=O)N2CCCOCC2)co1` [US20230399319, Example 2-336] displayed an IC50 of 10 nM.

As to `COC[C@@H]1CCN(S(=O)(=O)NC(=O)c2coc(Nc3cc(C)c(F)cc3C)n2)CCO1` [US20230399319, Example 2-347], inhibition was half-maximal at 55 nM (IC50).

Turning to `CCCS(=O)(=O)C1CCCN(S(=O)(=O)NC(=O)c2coc(Nc3cc(C(F)(F)F)ccc3C(C)C)n2)CC1` (stereo not drawn) [US20230399319, Example 2-316], the IC50 came to 22 nM.

`Cc1ccc(C(F)(F)F)cc1Nc1nc(C(=O)NS(=O)(=O)N2CCC(C#N)C2)co1` (stereo not drawn) [US20230399319, Example 2-221]: the IC50 is 210 nM.

In turn, `Cc1ccc(C(F)(F)F)cc1Nc1nc(C(=O)NS(=O)(=O)N2CCC(CS(C)(=O)=O)CC2)co1` [US20230399319, Example 2-022] had an IC50 of 240 nM.

Compound `CCCS(=O)(=O)C1CCCN(S(=O)(=O)NC(=O)c2coc(Nc3cc(C)ccc3C(C)C)n2)CC1` (stereo not drawn) [US20230399319, Example 2-311] showed an IC50 of 18 nM.

Turning to `Cc1cn(C(C)C)nc1Nc1nc(C(=O)NS(=O)(=O)N2CCCC(C#N)CC2)co1` (stereo not drawn) [US20230399319, Example 2-192], the IC50 came to 160 nM.

`Cc1cc(Cl)c(C(C)C)cc1Nc1nc(C(=O)NS(=O)(=O)N(C)C)co1` [US20230399319, Example 2-027] came in with an IC50 of 34 nM.

In the case of `Cc1ccc(C(F)(F)F)cc1Nc1nc(C(=O)NS(=O)(=O)N2CCN(c3ccccc3)CC2)co1` [US20230399319, Example 2-274], the IC50 came to 180 nM.

Consider `Cc1ccc(C(C)(C)C)cc1Nc1nc(C(=O)NS(=O)(=O)N(C)CCN(C)C)co1` [US20230399319, Example 2-132], for which 1900 nM corresponded to half-maximal inhibition (IC50).

For `COC[C@H]1CCN(S(=O)(=O)NC(=O)c2coc(Nc3cc(C)c(F)cc3C)n2)CCO1` [US20230399319, Example 3-001], the IC50 worked out at 72 nM.

`Cc1ccc(C(F)(F)F)cc1Nc1nc(C(=O)NS(=O)(=O)N2CCCC(C#N)CC2)co1` (stereo not drawn) [US20230399319, Example 2-141] came in with a 50% inhibitory concentration (IC50) of 9.7 nM.

`Cc1ccc(C(F)(F)F)cc1Nc1nc(C(=O)NS(=O)(=O)N2[C@H](C)CCC[C@@H]2C)co1` [US20230399319, Example 2-053] gave an IC50 of 89 nM.

With `Cc1ccc(C(F)(F)F)cc1Nc1nc(C(=O)NS(=O)(=O)N2CCOCC(n3cccn3)C2)co1` (stereo not drawn) [US20230399319, Example 2-304], half-maximal inhibition (IC50) was put at 59 nM.

`CC(C)c1ccc(C(F)(F)F)cc1Nc1nc(C(=O)NS(=O)(=O)N2CCCOCC2)co1` [US20230399319, Example 2-072]: the IC50 was 27 nM.

As for `CCOC[C@H]1OCCN(S(=O)(=O)NC(=O)c2coc(Nc3cc(C)c(F)cc3C)n2)C[C@@H]1OC` [US20230399319, Example 3-006], the IC50 came out at 30 nM.

Regarding `CC(C)c1ccc(C(F)(F)F)cc1Nc1nc(C(=O)NS(=O)(=O)N(C)C)co1` [US20230399319, Example 2-025], the IC50 was below 30 nM.

For `Cc1ccc(C(F)(F)F)cc1Nc1nc(C(=O)NS(=O)(=O)N2C[C@H]3COC[C@@H]3C2)co1` [US20230399319, Example 2-201], the IC50 came out at 320 nM.

As for `CCOCC1CCN(S(=O)(=O)NC(=O)c2coc(Nc3cc(OC)c(F)cc3C)n2)CCO1` (stereo not drawn) [US20230399319, Example 2-352], inhibition was half-maximal at 26 nM (IC50).

`Cc1cc(Cl)c(C(C)C)cc1Nc1nc(C(=O)NS(=O)(=O)N2CCOCC2)co1` [US20230399319, Example 2-028] yielded an IC50 below 30 nM.

Compound `Cc1ccc(C(F)(F)F)cc1Nc1nc(C(=O)NS(=O)(=O)N2CCC2C)co1` (stereo not drawn) [US20230399319, Example 2-078] displayed an IC50 of 100 nM.

Compound `Cc1cc(Nc2nc(C(=O)NS(=O)(=O)N3CCOC(C(C)(C)O)CC3)co2)c(C)cc1F` (stereo not drawn) [US20230399319, Example 3-002] returned an IC50 of 49 nM.

Compound `Cc1ccc(C(F)(F)F)cc1Nc1nc(C(=O)NS(=O)(=O)N2CCN(S(=O)(=O)C(C)C)CC2)co1` [US20230399319, Example 2-267] showed an IC50 of 88 nM.

On to `Cc1ccc(C(F)(F)F)cc1Nc1nc(C(=O)NS(=O)(=O)N2CCCC(C#N)(C(=O)N(C)C)CC2)co1` (stereo not drawn) [US20230399319, Example 2-260], for which the IC50 is 41 nM.

Regarding `Cc1ccc(C(F)(F)F)cc1Nc1nc(C(=O)NS(=O)(=O)N(C)Cc2ccccc2)co1` [US20230399319, Example 2-163], the IC50 came out at 49 nM.

`Cc1cn(CC(F)(F)F)nc1Nc1nc(C(=O)NS(=O)(=O)N2CCCOCC2)co1` [US20230399319, Example 2-152] showed an IC50 of 6100 nM.

As to `Cc1ccc(C(F)(F)F)cc1Nc1nc(C(=O)NS(=O)(=O)N2CCC(C)(C)C2)co1` [US20230399319, Example 2-020], it took 100 nM to reach half-maximal inhibition (IC50).

`Cc1ccc(C(F)(F)F)cc1Nc1nc(C(=O)NS(=O)(=O)N2CCCCCC2)co1` [US20230399319, Example 2-145] returned an IC50 of 42 nM.

On to `Cc1cn(C(C)C)nc1Nc1nc(C(=O)NS(=O)(=O)N2CCOCC(F)(F)C2)co1` [US20230399319, Example 2-212], for which the IC50 worked out at 280 nM.

`Cc1c(Nc2nc(C(=O)NS(=O)(=O)N(C)C)co2)cc(C(F)(F)F)cc1C(F)(F)F` [US20230399319, Example 2-041] gave an IC50 of 340 nM.

Compound `Cc1ccc(C(F)(F)F)cc1Nc1nc(C(=O)NS(=O)(=O)N2CCCC2C)co1` (stereo not drawn) [US20230399319, Example 2-174] gave an IC50 of 55 nM.

The compound `CC(C)c1nn(C(C)C)cc1Nc1nc(C(=O)NS(=O)(=O)N2CCCC(C#N)CC2)co1` (stereo not drawn) [US20230399319, Example 2-191] had an IC50 of 350 nM.

The compound `CCOCC1CCN(S(=O)(=O)NC(=O)c2coc(Nc3cc(C)c(F)cc3C(C)C)n2)CCO1` (stereo not drawn) [US20230399319, Example 2-335] returned an IC50 of 18 nM.

Compound `CC(C)c1ccc(C(F)(F)F)cc1Nc1nc(C(=O)NS(=O)(=O)N2CCOCC2)co1` [US20230399319, Example 2-026] yielded an IC50 below 30 nM.

`Cc1ccc(C(C)C)cc1Nc1nc(C(=O)NS(=O)(=O)N(C)C)co1` [US20230399319, Example 2-040] had an IC50 of 130 nM.

As to `Cc1ccc(C(F)(F)F)cc1Nc1nc(C(=O)NS(=O)(=O)N2CCCS(=O)(=O)CC2)co1` [US20230399319, Example 2-239], 170 nM corresponded to half-maximal inhibition (IC50).

With `CC(C)c1ccc(C(F)(F)F)cc1Nc1ncc(C(=O)NS(=O)(=O)N2CCCOCC2)o1` [US20230399319, Example 2-135], the IC50 was found to be 44 nM.

Compound `CCCS(=O)(=O)C1CCCN(S(=O)(=O)NC(=O)c2coc(Nc3nc(C(F)(F)F)ccc3C(C)C)n2)CC1` (stereo not drawn) [US20230399319, Example 2-315] had an IC50 of 85 nM.

`Cc1ccc(C(F)(F)F)cc1Nc1nc(C(=O)NS(=O)(=O)N2CCC(c3ccccc3)CC2)co1` [US20230399319, Example 2-282]: the IC50 was determined as 2500 nM.

Source of the values: BindingDB's records for patent US20230399319 (Japan Tobacco, 2023).
